# Experimental data taken from publication PMC3545969, “Mutagenicity and antimutagenicity of (−)-hinokinin a trypanosomicidal compound measured by Salmonella microsome and comet assays” (BMC Complementary and Alternative Medicine, 2012).
# Where two headings read alike, the source gives them in different places. Marks after values point to notes of the source that are not given here.
# Assays:
# [1] = tested on: V79 cells; test: Comet assay, antigenotoxicity against DXR in V79 cells; format: cell-based, Chinese hamster; set-up: Class 0 / Class 1 / Class 2 / Class 3: unit not given here; conditions: 3 h
# Experimental: Chinese hamster lung fibroblasts (V79) were kindly supplied by Professor Cólus (Universidade Estadual de Londrina (UEL), Paraná, Brazil). Cells were maintained as monolayers in plastic culture flasks (25 cm^2) in HAM-F10 (Sigma-Aldrich) plus DMEM (Sigma-Aldrich, 1:1) culture medium supplemented with 10%; fetal bovine serum (Nutricell), antibiotics (0.01 mg mL^−1 streptomycin and 0.005 mg mL^−1 penicillin; Sigma-Aldrich) and 2.38 mg mL^−1 Hepes (Sigma-Aldrich), at 37°C in a BOD-type chamber. Under these conditions, the average cell cycle time was 12 h.
# HK was first dissolved in a mixture of methanol (100 μL) and distilled water (900 μL). The final concentration of methanol in the culture was 0.1%;. The choice of concentrations was based on the results of previous experiments with HK [12]. In the experiments, 3 × 10^5 cells (V79) were seeded into tissue-culture flasks, incubated for two cycles (24 h) in complete HAM-F10/DMEM medium, washed with phosphate buffer saline (PBS), and then subjected to one of the following treatments, in serum-free medium, for 3 h. To assess genotoxicity, the cells were treated with each concentration of HK alone, while for antigenotoxicity, they were treated with the mutagen DXR (0.3 μM) in combination with each HK concentration. Positive (DXR) and negative controls were also included in the test. At the end of the treatment, the cells were washed with ice-cold PBS and trypsinized with 200 μL trypsin. After 3 min, the cells were gently resuspended in complete medium and 20 μL of the cell suspension was immediately used for the test.
# The procedures described by Singh et al. were adopted, with minor modifications, as described in detail by Speit and Hartmann and reviewed by Burlinson et al.. Briefly, a microscope slide was covered with a base layer of 1.5%; normal-melting agarose (Invitrogen) and 20 μL of the test cells suspended in 120 μL 0.5%; low-melting agarose (Invitrogen) at 37°C was then spread over the base layer. A coverslip was added and the agarose allowed to solidify at 4°C for 15 min. Next, the coverslip was gently removed and the slides were immersed in freshly prepared lysing solution consisting of 89 mL stock solution (2.5 M NaCl, 100 mM EDTA, 10 mM Tris, pH 10.0, and 1%; sodium lauryl sarcosine), 10 mL DMSO and 1 mL Triton X-100, pH 10.0, at 4°C, for at least 20 h, protected from light. At the end of this period, the slides were transferred to an electrophoresis chamber containing a high pH (>13.0) buffer (300 mM NaOH, 1 mM EDTA) and incubated at 4°C for 20 min to allow the DNA to unwind. A current of 25 V (1.0 V cm^−1, 300 mA) was applied for 20 min. The slides were then submerged in a neutralization buffer (0.4 M Tris - HCl, pH 7.5) for 15 min, dried at room temperature and fixed in 100%; ethanol for 10 min.
# The slides were stained with 100 μL ethidium bromide (20 μg ml^−1) and covered with a coverslip. All the slides in the experiment were coded before analysis. The stained nucleoids were immediately evaluated at 1000x magnification under a Nikon fluorescence microscope fitted with a 515–560 nm excitation filter and a 590 nm barrier filter.
# For each treatment, the extent and distribution of DNA damage indicated by the comet assay were evaluated by examining 100 randomly selected and non-overlapping cells on the slides (i.e. 300 nucleoids per treatment). For each slide, the cells were visually scored and allocated to one of four classes (0, 1, 2 and 3), according to tail size, as follows: class 0, undamaged, no tail; class 1, a short tail whose length was smaller than the diameter of the comet head (nucleus); class 2, tail length between 1 and 2 times the diameter of the head; and class 3, maximally damaged: a long tail measuring more than twice the diameter of the head. The few comets containing no head and those with almost all DNA in the tail, or with a very wide tail, were excluded from the analysis since they may arise from dead cells. […]
# [2] = tested on: Salmonella typhimurium TA97a; conditions: TA 97a
compound,measurement,setting,value
"O=C1OC[C@H](Cc2ccc3c(c2)OCO3)[C@H]1Cc1ccc2c(c1)OCO2 [HK, (−)-hinokinin]",Class 0,[1]; HK 0.5 μM + DXR 0.3 μM,73.0 ± 7.0
same,Class 1,[1]; HK 0.5 μM + DXR 0.3 μM,20.0 ± 7.5
same,Class 2,[1]; HK 0.5 μM + DXR 0.3 μM,4.6 ± 1.5
same,Class 3,[1]; HK 0.5 μM + DXR 0.3 μM,2.0 ± 2.0
same,Reduction % (of DXR-induced DNA damage),[1]; HK 0.5 μM + DXR 0.3 μM,76.0%
same,Score,[1]; HK 0.5 μM + DXR 0.3 μM,"36.0 ± 6.1^a,b"
same,Class 0,[1]; HK 1.0 μM + DXR 0.3 μM,68.0 ± 2.0
same,Class 1,[1]; HK 1.0 μM + DXR 0.3 μM,20.6 ± 2.5
same,Class 2,[1]; HK 1.0 μM + DXR 0.3 μM,8.0 ± 2.0
same,Class 3,[1]; HK 1.0 μM + DXR 0.3 μM,3.3 ± 0.5
same,Reduction % (of DXR-induced DNA damage),[1]; HK 1.0 μM + DXR 0.3 μM,60.8%
same,Score,[1]; HK 1.0 μM + DXR 0.3 μM,"46.0 ± 3.0^a,b"
same,Class 0,[1]; HK 2.0 μM + DXR 0.3 μM,65.0 ± 6.8
same,Class 1,[1]; HK 2.0 μM + DXR 0.3 μM,27.0 ± 6.6
same,Class 2,[1]; HK 2.0 μM + DXR 0.3 μM,4.3 ± 2.3
same,Class 3,[1]; HK 2.0 μM + DXR 0.3 μM,2.6 ± 1.6
same,Reduction % (of DXR-induced DNA damage),[1]; HK 2.0 μM + DXR 0.3 μM,63.4%
same,Score,[1]; HK 2.0 μM + DXR 0.3 μM,"44.3 ± 9.2^a,b"
same,Class 0,[1]; HK 32 μM + DXR 0.3 μM,35.0 ± 5.0
same,Class 1,[1]; HK 32 μM + DXR 0.3 μM,33.0 ± 3.0
same,Class 2,[1]; HK 32 μM + DXR 0.3 μM,30.0 ± 4.1^b
same,Class 3,[1]; HK 32 μM + DXR 0.3 μM,1.0 ± 1.0
same,Score,[1]; HK 32 μM + DXR 0.3 μM,97.0 ± 10.0^a
same,Class 0,[1]; HK 64 μM + DXR 0.3 μM,32.0 ± 6.1
same,Class 1,[1]; HK 64 μM + DXR 0.3 μM,39.0 ± 3.7
same,Class 2,[1]; HK 64 μM + DXR 0.3 μM,26.0 ± 2.0
same,Class 3,[1]; HK 64 μM + DXR 0.3 μM,2.0 ± 2.0
same,Score,[1]; HK 64 μM + DXR 0.3 μM,97.0 ± 10.0^a
same,Class 0,[1]; HK […] + DXR 0.3 μM,28.0 ± 6.6
same,Class 1,[1]; HK […] + DXR 0.3 μM,40.0 ± 1.0
same,Class 2,[1]; HK […] + DXR 0.3 μM,29.0 ± 5.2^b
same,Class 3,[1]; HK […] + DXR 0.3 μM,3.0 ± 2.5
same,Score,[1]; HK […] + DXR 0.3 μM,106.0 ± 16.0^a
same,MI (mutagenicity index),"[2]; + S9, HK 19.5 μg/plate",1.1
same,Number of revertants(M ± SD)/ plate,"[2]; + S9, HK 19.5 μg/plate",187 ± 3 revertants/plate
same,MI (mutagenicity index),"[2]; + S9, HK 39.0 μg/plate",1.0
same,Number of revertants(M ± SD)/ plate,"[2]; + S9, HK 39.0 μg/plate",166 ± 5 revertants/plate
same,MI (mutagenicity index),"[2]; + S9, HK 58.5 μg/plate",1.0
same,Number of revertants(M ± SD)/ plate,"[2]; + S9, HK 58.5 μg/plate",172 ± 2 revertants/plate
same,MI (mutagenicity index),"[2]; + S9, HK 78.0 μg/plate",0.9
same,Number of revertants(M ± SD)/ plate,"[2]; + S9, HK 78.0 μg/plate",146 ± 4 revertants/plate
same,MI (mutagenicity index),"[2]; - S9, HK 39.0 μg/plate",0.9
same,Number of revertants(M ± SD)/ plate,"[2]; - S9, HK 39.0 μg/plate",146 ± 5 revertants/plate
same,MI (mutagenicity index),"[2]; - S9, HK 58.5 μg/plate",1.1
same,Number of revertants(M ± SD)/ plate,"[2]; - S9, HK 58.5 μg/plate",175 ± 4 revertants/plate
same,MI (mutagenicity index),"[2]; - S9, HK 78.0 μg/plate",1.0
same,Number of revertants(M ± SD)/ plate,"[2]; - S9, HK 78.0 μg/plate",163 ± 8 revertants/plate
